According to US20260355184A1, “SMALL MOLECULE DEGRADERS OF HIV-1 TAT PROTEIN” (priority 2022, published 2026):
Like-named read-outs stand apart in the source and are kept apart here.

Tests used:
HIV NL4.3 strain = assay: HIV infectivity assay, reporter cell line HeLa-CD4-LTR-LacZ, β-Gal activity (Tat protein inhibition); type: cell-based, HIV-1 (NL4.3)
Protocol: (§1) Next, the activity of these leads against HIV infection was evaluated using the reporter cell line HeLa-CD4-LTR-LacZ, which stably expresses the β-galactosidase (β-Gal) gene under the control of the HIV 5′ LTR. The HIV NL4.3 strain was used for these studies and β-Gal activity was measured 72 hrs post infection (FIG. 3A). Cytotoxicity assays using Cell-Titer-Glo were performed in parallel to assess cell viability (FIG. 3A). […] Their anti-HIV activity was further assessed in acute replication of Jurkat T cells with the NL4.3 strain (FIG. 3A). […] These OM10.1 cells contain a single integrated wild-type provirus, while ACH-2 cells contain a single integrated provirus with a TAR mutation C37T, defective Tat-TAR feedback loop (FIG. 3B).

[1] = Cytotoxicity assay, Cell-Titer-Glo, HeLa-CD4-LTR-LacZ; conditions: human, hela-cd4-ltr-lacz cells
Protocol: as §1

[2] = Infectivity CC50, HeLa-CD4-LTR-LacZ, analogs of TT-44856 (Table 3)
[3] = Human immunodeficiency virus 1, read-out: Infectivity IC50, HeLa-CD4-LTR-LacZ, analogs of TT-44856 (Table 3)
[4] = Human immunodeficiency virus 1, read-out: Infectivity IC50, HeLa-CD4-LTR-LacZ, analogs of TT-44881 (Table 1)
[5] = Infectivity CC50, HeLa-CD4-LTR-LacZ, analogs of TT-44881 (Table 1)

SMILES | CC50 [1, 2] | IC50 (HIV NL4.3 strain; [3]) | also measured
COc1ccc(C(F)(F)F)cc1NC(=O)C(C)n1cc(C(F)(F)F)cc(-c2ccccc2)c1=O (stereo not drawn) |  |  | IC50 (HIV NL4.3 strain; Human immunodeficiency virus 1, read-out: Infectivity IC50, HeLa-CD4-LTR-LacZ, analogs of TT-44863 (Table 2)): > 100 µM; CC50 ([1]; Infectivity CC50, HeLa-CD4-LTR-LacZ, analogs of TT-44863 (Table 2)): > 100 µM
O=C(NCCCn1ccnc1)c1ccc2ccccc2c1 [3-34] | > 100 µM |  | 
O=C(NCCCn1ccnc1)C1c2ccccc2-c2ccccc21 [3-35] | > 100 µM | 50 to 100 µM | 
O=C(NCCCn1ccnc1)C1(O)c2ccccc2-c2ccccc21 [3-36] |  |  | IC50 (HIV NL4.3 strain; Human immunodeficiency virus 1, read-out: Infectivity IC50): 20 to 50 µM; CC50 [1]: > 100 µM
O=C(NCCCn1ccnc1)c1cc2cccnc2[nH]1 [3-37] | > 100 µM | > 100 µM | 
O=C(NCCCn1ccnc1)c1cc(O)c2cc(Cl)ccc2n1 [3-38] | > 100 µM | > 100 µM | 
O=C(NCCCn1ccnc1)c1cc(Cl)nc2ccccc12 [3-39] | > 100 µM | > 100 µM | 
O=C(NCCCn1ccnc1)c1ccc(-n2cc(Br)cn2)cc1 [3-40] | > 100 µM | > 100 µM | 
O=C(NCCCn1ccnc1)c1cc2cc(Cl)ccc2[nH]1 [3-41] | > 100 µM | > 100 µM | 
NC(C(=O)NCCCn1ccnc1)(c1ccccc1)c1ccccc1 [3-42] | > 100 µM | 10 to 30 µM | 
COc1ccccc1CCNC(=O)C(C)(c1ccccc1)c1ccccc1 [3-43] | 25 to 50 µM | 20 to 100 µM | 
CC(C(=O)Nc1cc(OCc2ccccc2)ccn1)(c1ccccc1)c1ccccc1 [3-44] | > 100 µM | 1 to 30 µM | 
CC(C(=O)NCCc1ccc(C(F)(F)F)cc1)(c1ccccc1)c1ccccc1 [3-45] | 50 to 100 µM | 10 to 20 µM | 
CC(C(=O)NCCc1ccccc1)(c1ccccc1)c1ccccc1 [3-46] | 20 to 50 µM | 50 to 100 µM | 
CC(NC(=O)C(C)(c1ccccc1)c1ccccc1)c1ccccc1 (stereo not drawn) [3-47] | > 100 µM | 10 to 30 µM | 
COc1ccc(C(C(=O)NCCCn2ccnc2)c2ccccc2)cc1 (stereo not drawn) [3-48] | > 100 µM | 20 to 50 µM | 
CCC(C(=O)NCCCn1ccnc1)(c1ccccc1)c1ccccc1 [3-49] | > 100 µM | 1 to 10 µM | 
CC1(C(=O)NCCCn2ccnc2)c2ccccc2-c2ccccc21 [3-50] | > 100 µM | 1 to 20 µM | 
CN1CCN(CCNC(=O)C(C)(c2ccccc2)c2ccccc2)CC1 [3-51] | > 100 µM | > 100 µM | 
Cc1nccn1CCCNC(=O)C(C)(c1ccccc1)c1ccccc1 [3-52] | > 100 µM | 1 to 10 µM | 
CC(C)c1nccn1CCCNC(=O)C(C)(c1ccccc1)c1ccccc1 [3-54] | 50 to 100 µM | 1 to 20 µM | 

SMILES | CC50 [1, 2] | IC50 (HIV NL4.3 strain; [3]) | also measured
CC(C(=O)NCCCN1CCNCC1)(c1ccccc1)c1ccccc1 [3-55] | > 100 µM | > 100 µM | 
CCc1nccn1CCCNC(=O)C(C)(c1ccccc1)c1ccccc1 [3-56] | > 100 µM | 10 to 20 µM | 
CCCC(C(=O)NCCCn1ccnc1)(c1ccccc1)c1ccccc1 [3-57] | > 100 µM | 1 to 10 µM | 
O=C(NCCCn1ccnc1)C(c1ccccc1)(c1ccccc1)c1ccccc1 [3-58] | > 100 µM | 1 to 20 µM | 
CC(C(=O)NCC1CCCNC1)(c1ccccc1)c1ccccc1 (stereo not drawn) [3-59] | > 100 µM | 1 to 30 µM | 
CCCC(=O)NC(C(=O)NCCCn1ccnc1)(c1ccccc1)c1ccccc1 [3-60] | > 100 µM | > 100 µM | 
O=C(NCCCn1ccnc1)C1c2ccccc2Oc2ccccc21 [3-61] | > 100 µM | > 100 µM | 
CCCC(=O)NCc1cn(CCCNC(=O)C(C)(c2ccccc2)c2ccccc2)cn1 [3-62] | > 100 µM | > 100 µM | 
O=C(NCCCn1ccnc1)c1nn(-c2ccccc2)c2c1CCC2 [3-63] | 1 to 10 µM | 1 to 10 µM | 
CC(C(=O)NCCCn1cnc(CNC(=O)OCc2ccccc2)c1)(c1ccccc1)c1ccccc1 [3-64] | 20 to 50 µM | 10 to 30 µM | 
CCCC(C(=O)NCCCn1ccnc1C)(c1ccccc1)c1ccccc1 [3-65] | 50 to 100 µM | 1 to 10 µM | 
CCCC(C(=O)NCCCn1c(C)nc2ccccc21)(c1ccccc1)c1ccccc1 [3-66] | 20 to 50 µM | 20 to 50 µM | 
Cc1nccn1CCCNC(=O)C(c1ccccc1)(c1ccccc1)c1ccccc1 [3-67] | 50 to 100 µM | 1 to 20 µM | 
O=C(NCCCn1cnc2ccccc21)C(c1ccccc1)(c1ccccc1)c1ccccc1 [3-68] | 20 to 50 µM | 10 to 30 µM | 
CCC(C(=O)NCCCn1ccnc1C)(c1ccccc1)c1ccccc1 [3-69] | > 100 µM | 1 to 10 µM | 
CCC(C(=O)NCCCn1cnc2ccccc21)(c1ccccc1)c1ccccc1 [3-70] | 50 to 100 µM | 20 to 50 µM | 
CCC(C(=O)NCCCn1ccnc1)c1ccccc1 (stereo not drawn) [3-72] | > 100 µM | > 100 µM | 
O=C1N(CCCn2ccnc2)CCC1(c1ccccc1)c1ccccc1 [3-73] | > 100 µM | 10 to 50 µM | 
O=C(NCCCn1ccnc1)C(CCO)(c1ccccc1)c1ccccc1 [3-74] | > 100 µM | 1 to 20 µM | 
CCCCOCCC(C(=O)NCCCn1ccnc1)(c1ccccc1)c1ccccc1 [3-75] | > 100 µM | 50 to 100 µM | 
CC(C(=O)NCCCc1cccnc1)(c1ccccc1)c1ccccc1 [3-76] | 10 to 30 µM | 1 to 30 µM | 

SMILES | CC50 [1, 2] | IC50 (HIV NL4.3 strain; [3]) | also measured
O=C(NCCCN1CCCC1=O)c1nn(-c2ccccc2)c2c1CCCCC2 [GB-03] |  |  | IC50 (HIV NL4.3 strain; [4]): > 100 µM; CC50 [1, 5]: > 100 µM
CCN(CCCN1CCCC1=O)C(=O)c1nn(-c2ccccc2)c2c1CCC2 [GB-05] |  |  | IC50 (HIV NL4.3 strain; [4]): > 100 µM; CC50 [1, 5]: > 100 µM
CCCN(CCCN1CCCC1=O)C(=O)c1nn(-c2ccccc2)c2c1CCC2 [GB-06] |  |  | IC50 (HIV NL4.3 strain; [4]): 5 to 30 µM; CC50 [1, 5]: > 100 µM
CCCCN(CCCN1CCCC1=O)C(=O)c1nn(-c2ccccc2)c2c1CCC2 [GB-07] |  |  | IC50 (HIV NL4.3 strain; [4]): 50 to 100 µM; CC50 [1, 5]: 50 to 100 µM
CC(C)N(CCCN1CCCC1=O)C(=O)c1nn(-c2ccccc2)c2c1CCC2 [GB-08] |  |  | IC50 (HIV NL4.3 strain; [4]): 30 to 50 µM; CC50 [1, 5]: > 100 µM
O=C1CCCN1CCCN(Cc1ccccc1)C(=O)c1nn(-c2ccccc2)c2c1CCC2 [GB-09] |  |  | IC50 (HIV NL4.3 strain; [4]): 25 to 50 µM; CC50 [1, 5]: 25 to 50 µM
O=C(NCCCN1CCCC1=O)c1nn(-c2ccccc2)c2c1CCC1(C2)OCCO1 [GB-10] |  |  | IC50 (HIV NL4.3 strain; [4]): > 100 µM; CC50 [1, 5]: > 100 µM
O=C1CCc2c(C(=O)NCCCN3CCCC3=O)nn(-c3ccccc3)c2C1 [GB-11] |  |  | IC50 (HIV NL4.3 strain; [4]): 10 to 20 µM; CC50 [1, 5]: > 100 µM
O=C(NCCCN1CCCC1=O)c1nn(-c2ccccc2)c2c1CCC(O)C2 (stereo not drawn) [GB-12] |  |  | IC50 (HIV NL4.3 strain; [4]): 1 to 10 µM; CC50 [1, 5]: > 100 µM
CCc1cc(C(=O)NCCCN2CCCC2=O)nn1-c1ccccc1 [GB-13] |  |  | IC50 (HIV NL4.3 strain; [4]): 10 to 20 µM; CC50 [1, 5]: > 100 µM
O=C(Cc1c(Cl)cccc1Cl)NCCCn1ccnc1 [Z30217435] |  | > 100 µM | 
O=C(Cc1cccc(C(F)(F)F)c1)NCCCn1ccnc1 [Z30217436] |  | > 100 µM | 
O=C(CC(c1ccccc1)c1ccccc1)NCCCn1ccnc1 [Z30217483] |  | > 100 µM | 
CNc1ccccc1CC(=O)NCCCn1ccnc1 [Z31794405] |  | > 100 µM | 
O=C(Cc1ccc2ccccc2c1)NCCCn1ccnc1 [Z31795124] |  | > 100 µM | 
O=C(Cc1cccc2ccccc12)NCCCn1ccnc1 [Z31795406] |  | > 100 µM | 
O=C(NCCCn1ccnc1)c1ccc2ccccc2c1 [Z31795639] |  | > 100 µM | 
O=C(NCCCn1ccnc1)c1ccc(-c2ccccc2)cc1 [Z31795699] |  | > 100 µM | 
O=C(Cc1ccc(F)cc1)NCCCn1ccnc1 [Z31795779] |  | > 100 µM | 
O=C(Cc1ccccc1F)NCCCn1ccnc1 [Z31795827] |  | > 100 µM | 
COc1cccc(CC(=O)NCCCn2ccnc2)c1 [Z31796092] |  | > 100 µM | 

SMILES | CC50 [1, 2] | IC50 (HIV NL4.3 strain; [3]) | also measured
O=C(Cc1cccc(F)c1)NCCCn1ccnc1 [Z31796183] |  | > 100 µM | 
O=C(Cc1ccccc1Cl)NCCCn1ccnc1 [Z31796195] |  | > 100 µM | 
O=C(Cc1ccc2c(c1)CCC2)NCCCn1ccnc1 [Z51979499] |  | > 100 µM | 
O=C(COC(c1ccccc1)c1ccccc1)NCCCn1ccnc1 [Z51979572] |  | > 100 µM | 
Cc1ccccc1CC(=O)NCCCn1ccnc1 [Z51979592] |  | > 100 µM | 
O=C(NCCCn1ccnc1)c1ccc(Oc2ccccc2)cc1 [Z56813845] |  | > 100 µM | 
Cc1ccc(CC(=O)NCCCn2ccnc2)cc1 [Z100612606] |  | > 100 µM | 
CC(CNC(=O)CCn1cnc2ccccc21)(c1ccccc1)c1ccccc1 [Z119886832] |  | > 100 µM | 
Cc1ccc(CCC(=O)NCCCn2ccnc2)cc1 [Z196426172] |  | > 100 µM | 
CC(CNC(=O)CCn1cncn1)(c1ccccc1)c1ccccc1 [Z221503086] |  | > 100 µM | 
O=C(Cc1ccc(C(F)(F)F)cc1)NCCCn1ccnc1 [Z236749082] |  | > 100 µM | 
O=C(NCCCn1ccnc1)N(Cc1ccccc1)Cc1ccccc1 [Z991981670] |  | > 100 µM | 
CC(C(=O)NCCCn1ccnc1)c1c(Cl)cccc1Cl (stereo not drawn) [Z1004969394] |  | > 100 µM | 
CC(C)(C(=O)NCCCn1ccnc1)c1cccc(C(F)(F)F)c1 [Z1053536312] |  | > 100 µM | 
Cc1nccn1CCCNC(=O)C(C)(C)c1ccccc1Cl [Z1119105307] |  | > 100 µM | 
CCC(=O)NC(C(=O)NCCCn1ccnc1)c1ccccc1 (stereo not drawn) [Z1207330250] |  | > 100 µM | 
CC(CNC(=O)Cc1c(F)cccc1Cl)Cn1ccnc1 (stereo not drawn) [Z1250741002] |  | > 100 µM | 
CC(C)(C(=O)NCCCn1ccnc1)c1cccc(C(F)(F)F)c1 [compound 46606] | > 100 µM |  | 
